Data from ChEMBL document CHEMBL1144845, “Ligand binding efficiency: trends, physical basis, and implications” (J Med Chem, 2008).

Experiment: Binding affinity to carbonic anhydrase

With `CC(C)(C)c1ccc(C(=O)Nc2ccccc2S(N)(=O)=O)cc1` the “Log Ki” value was -6.6.
With `CN1C(CN2CCOCC2)=Cc2sc(S(N)(=O)=O)cc2S1(=O)=O` the “Log Ki” value was -9.7.
In the case of `Cc1ccc(S(N)(=O)=O)cc1` [P-TOLUENESULFONAMIDE], the “Log Ki” value is reported as -6.5.
